US20220348564A1, “PHENYL-[1,3]DIOXOLO[4,5-C]PYRIDINYL-PHENYL-, PHENYL-[1,3]DIOXOLO[4,5-C]PYRIDINYL-HETEROARYL-, OR PHENYL-(1,3)DIOXO[4,5-C]PYRIDINYL-PIPERIDINYL-METHYL-OXETANYLMETHYL-1H-BENZO[D]IMIDAZOLE-CARBOXYLIC ACID DERIVATIVES AND METHODS OF USING SAME” (Eccogene (Shanghai) Co., Ltd., priority 2021, published 2022)
Read-outs that look alike come from different tables or passages of the source.

Legend:
[1] = Liver microsome stability, rat; assay type: in vitro ADME; conditions: rat liver microsomes, NADPH, 37° C.
Experimental: (§1) Compounds of the present application was incubated with human or rat liver microsomes in the presence of NADPH at 37° C. The concentration of compound at pre-incubation and after 30 min incubation was quantified by LC-MS. The percentage of remaining compound was then calculated and indicative of microsome stability of each compound.

[2] = Liver microsome stability, human; assay type: in vitro ADME; conditions: human liver microsomes, NADPH, 37° C.
Experimental: as §1

human GLP-1 = target: T1, human GLP-1 (Homo sapiens, UniProt P43220); test: h-GLP-1 activity assay (Cisbio cAMP Gs dynamic kit, HTRF); assay type: cell-based; conditions: HEK293 cells with stable expression of human GLP-1, relative EC50, 10 nM human GLP-1 = 100% response
T1 construct: expressed in transfected cells
Experimental: Human GLP-1 agonizing activity was detected in HEK293 cells with stable expression of human GLP-1 by Cisbio cAMP Gs dynamic kit (Catalog #62AM4PEC) according to manufacturer's protocol. Briefly, cells were collected and resuspended in assay buffer containing 0.1% BSA and 0.5 mM of IBMX at concentration to 2.5×10^5 cells/mL. Two μL 5× compound solution and 8 μL cell suspension were added to each well of low-volume 384 white assay plate. After 30 min incubation at 37° C., 5 μL cAMP-d2 working solution and 5 μL anti-cAMP antibody-cryptate were added to each well, and incubate at room temperature for 1 hr. Series dilution of cAMP was used as standard. Human GLP-1 (7-37) was used as positive control and 10 nM human GLP-1 was set as 100% response. HTRF signals were read at 665 and 615 nm with EnVision plate reader and calculated cAMP concentration by intrapolation to the standard curve. The EC50 value of the tested compounds was calculated by fitting the dose response curve using a 4-parameter non-linear regression routine and relative EC50 was presented in Table S.

[3] = Pharmacokinetics in fasted SD rats (PO and IV); assay type: in vivo; conditions: rat, plasma; for clearance: read-out: IV parameters CL; for bioavailability: read-out: PO parameters F (%)
Experimental: Compounds of the present application were formulated in 0.50% MC, and administered via oral gavage (PO) at the dosages of 5 or 10 mg per kilogram body weight, or formulated in 5% DMSO:15% Solutol 80% (SBECD), and administered via intravenous injection (IV) at the dosages of 1 mg per kilogram body weight, in fasted SD rats. Plasma samples were collected at 0.25, 0.5, 1, 2, 4, 6, 8, and 24 hours post dosing (PO); and were collected at 0.083, 0.25, 0.5, 1, 2, 4, 6, 8, and 24 hours post dosing (IV). Compound concentration was determined by LC-MS and pharmacokinetics parameters were calculated by WinNonlin 8.2 using Non-Compartmental Analysis model.

[4] = IV 1 mg/kg, read-out: IV parameters AUC0-inf
[5] = PO 5 mg/kg, 0.50% MC, read-out: PO parameters AUC0-inf

T1 sequence (P43220 24-463): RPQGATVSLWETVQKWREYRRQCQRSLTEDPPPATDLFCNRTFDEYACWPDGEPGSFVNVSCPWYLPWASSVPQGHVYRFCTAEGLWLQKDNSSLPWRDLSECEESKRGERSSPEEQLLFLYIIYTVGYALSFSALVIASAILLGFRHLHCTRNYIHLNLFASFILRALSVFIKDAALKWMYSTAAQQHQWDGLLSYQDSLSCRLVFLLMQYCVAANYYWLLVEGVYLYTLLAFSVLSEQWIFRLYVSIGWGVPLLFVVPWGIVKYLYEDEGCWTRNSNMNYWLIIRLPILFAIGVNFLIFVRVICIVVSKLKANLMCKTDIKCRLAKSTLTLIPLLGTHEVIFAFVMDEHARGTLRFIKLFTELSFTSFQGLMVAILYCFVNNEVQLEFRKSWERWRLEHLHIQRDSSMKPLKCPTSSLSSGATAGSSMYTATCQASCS

Row | SMILES | Rat (% remaining @ 30 min) [1] [%] | Human (% remaining @ 30 min) [2] [%] | EC50 (human GLP-1) [nM] | AUC(0-inf) [3, 4] [ng·h/mL] | clearance ([3]; IV 1 mg/kg) [mL/min/kg] | AUC(0-inf) [3, 5] [ng·h/mL] | bioavailability ([3]; PO 5 mg/kg) [%]
1 | C[C@]1(c2ccc(Cl)cn2)Oc2cccc(C3=CC[C@H](Cc4nc5c(F)cc(C(=O)O)cc5n4C[C@@H]4CCO4)OC3)c2O1 (single isomer, unassigned) [Compound 118] | >75 | >75 | < 20 | – | – | – | –
2 | O=C(O)c1ccc2nc(C[C@H]3CC[C@H](c4cccc(OCc5ccc(Cl)cc5F)n4)CO3)n(Cc3cncs3)c2c1 (single isomer, unassigned) [Compound 28] | – | – | < 20 | 588 | 28.8 | 526 | 21.7
3 | C[C@]1(c2ccc(Cl)cc2F)Oc2cccc(C3=CC[C@@H](Cc4nc5ccc(C(=O)O)nc5n4C[C@@H]4CCO4)OC3)c2O1 (single isomer, unassigned) [Compound 108] | >75 | >75 | < 20 | – | – | – | –
4 | C[C@]1(c2ccc(Cl)cc2F)Oc2cccc(C3=CC[C@@H](Cc4nc5c(F)cc(C(=O)O)cc5n4C[C@@H]4CCO4)OC3)c2O1 (single isomer, unassigned) [Compound 110] | >75 | >75 | < 20 | – | – | – | –
5 | C[C@]1(c2ccc(Cl)cc2F)Oc2cccc(-c3ccc(Cc4nc5ccc(C(=O)O)cc5n4C[C@@H]4CCO4)cc3)c2O1 (single isomer, unassigned) [Compound 19] | – | – | < 20 | 3380 | 5.5 | 4410 | 26.1
6 | C[C@@]1(c2ccc(Cl)cn2)Oc2cccc(C3=CC[C@H](Cc4nc5ccc(C(=O)O)cc5n4C[C@@H]4CCO4)OC3)c2O1 (single isomer, unassigned) [Compound 78] | >75 | >75 | < 20 | – | – | – | –
7 | CC1(c2ccc(Cl)cc2F)Oc2cccc(-c3cnc(Cc4nc5ccc(C(=O)O)cc5n4C[C@@H]4CCO4)nc3)c2O1 (mixture of isomers) [Compound 17, 2-((5-(2-(4-chloro-2-fluorophenyl)-2-methylbenzo[d][1,3]dioxol-4-yl)pyrimidin-2-yl)methyl)-1-(((S)-oxetan-2-yl)methyl)-1H-benzo[d]imidazole-6-carboxylic acid] | – | – | < 20 | – | – | – | –
8 | CC1(c2ccc(Cl)cc2F)Oc2c(cccc2C2CCN(Cc3nc4ccc(C(=O)O)cc4n3C[C@@H]3CCO3)CC2)NC1=O (mixture of isomers) [Compound 68, 2-((4-(2-(4-chloro-2-fluorophenyl)-2-methyl-3-oxo-3,4-dihydro-2H-benzo[b][1,4]oxazin-8-yl)piperidin-1-yl)methyl)-1-(((S)-oxetan-2-yl)methyl)-1H-benzo[d]imidazole-6-carboxylic acid] | – | – | 20 to 100 | – | – | – | –
9 | C[C@]1(c2ccc(Cl)cn2)Oc2cccc(C3=CC[C@@H](Cc4nc5ccc(C(=O)O)cc5n4Cc4cncs4)OC3)c2O1 (single isomer, unassigned) [Compound 113] | – | – | 20 to 100 | – | – | – | –
10 | C[C@@]1(c2ccc(Cl)cc2F)Oc2cccc(-c3ccc(Cc4nc5ccc(C(=O)O)cc5n4C[C@@H]4CCO4)cc3)c2O1 (single isomer, unassigned) [Compound 3] | – | – | > 100 | – | – | – | –
11 | C[C@@]1(c2ccc(Cl)cc2F)Oc2cccc(C3=CC[C@@H](Cc4nc5ccc(C(=O)O)cc5n4C[C@@H]4CCO4)OC3)c2O1 (single isomer, unassigned) [Compound 100] | >75 | >75 | < 20 | 1760 | 9.7 | 3190 | 36.3
12 | C[C@@]1(c2ccc(Cl)cn2)Oc2cccc(C34COC(Cc5nc6ccc(C(=O)O)cc6n5C[C@@H]5CCO5)CC3C4)c2O1 (single isomer, unassigned) [Compound 75] | – | – | > 100 | – | – | – | –
